Like-named read-outs stand apart in the source and are kept apart here.
System: rat cytochrome P4503A
Conditions: for % inhibition (0.0001%): oil ingredient at 0.0001 wt % (Table 2); for % inhibition (0.001%): oil ingredient at 0.001 wt % (Table 2); for % inhibition (0.01%): oil ingredient at 0.01 wt % (Table 2)

## C=C1CC/C=C(\C)CC[C@@H]2[C@@H]1CC2(C)C [Caryophyllene, trans-(-), β Caryophyllene]
  % inhibition (0.0001%): 26%
  % inhibition (0.001%): 85%

## CC1=CC=C(C(C)C)CC1 [Terpinene-α, p-Mentha-1,3-diene]
  % inhibition (0.0001%): -6%
  % inhibition (0.001%): 28%

## C=C(C)C1CC=C(C)C(O)C1 (single isomer, unassigned) [Carveol-(-), p-Mentha-6,8-dien-2-ol]
  % inhibition (0.0001%): 2%
  % inhibition (0.001%): 60%

## O=C/C=C/c1ccccc1 [Cinnamic Aldehyde, trans-, 3-Phenylpropenaldehyde]
  % inhibition (0.001%): 29.0%
  % inhibition (0.01%): 78%

## CC1(C)C(=O)[C@]2(C)CC[C@H]1C2 [Fenchone-(IR)-(-), 1,3,3-Trimethylbicyclo[2.2.1]heptan-2-one]
  % inhibition (0.0001%): 14%
  % inhibition (0.001%): 38%

## CC12CCC(CC1=O)C2(C)C (racemic) [Camphor-(±), 1,7,7-Trimethylbicyclo[2.2.1]heptan-2-one]
  % inhibition (0.001%): 57%
  % inhibition (0.01%): 87%

## CC1=CCC(C(C)(C)O)CC1 (stereo not drawn) [Terpincol-α, p-Menth-1-en-8-ol]
  % inhibition (0.0001%): 13.4%
  % inhibition (0.001%): 86%
  % inhibition (0.01%): 100%

## COC(=O)c1ccccc1O [Methyl Salicylate, Methyl-2-hydroxybenzoate]
  % inhibition (0.001%): 12%
  % inhibition (0.01%): 86%

## C=CC(C)(CCC=C(C)C)OC(C)=O (stereo not drawn) [Linalyl Acetate, 3,7-Dimethyl-1,6-octadien-3-yl acetate]
  % inhibition (0.001%): 55.8%
  % inhibition (0.01%): 100%

## CC(C)=CCC/C(C)=C/C=O [Citral]
  % inhibition (0.0001%): 44%
  % inhibition (0.001%): 54%
  % inhibition (0.01%): 99%

## CC(=O)OC/C=C(\C)CCC=C(C)C [Geranyl Acetate, trans-3,7-Dimethyl-2,,6-octadien-1-yl acetate]
  % inhibition (0.001%): 51.5%
  % inhibition (0.01%): 73%

## Cc1ccc(C(C)C)c(O)c1 [Thymol, 2-isoPropyl-5-methylphenol]
  % inhibition (0.001%): 56%
  % inhibition (0.01%): 100%

## CCOC(=O)/C=C/c1ccccc1 [Ethyl Cinnamate, trans-]
  % inhibition (0.0001%): -13%
  % inhibition (0.001%): -16%

## C=CC(C)(O)CCC=C(C)C (racemic) [Linalcol-(±), 3,7-Dimethyl-1,6-octadien-3-ol]
  % inhibition (0.0001%): 41%
  % inhibition (0.001%): 72.0%
  % inhibition (0.01%): 85%

## CCOc1cc(C=O)ccc1O [Ethyl Vanillin, 3-Ethoxy-4-hydroxybenzoledhyde]
  % inhibition (0.01%): 58%

## C=CC(=C)CCC=C(C)C [Myrcene-β, 7-Methyl-3-methylene-1,6-octadiene]
  % inhibition (0.0001%): 0%
  % inhibition (0.001%): 13%

## CC1(C)[C@H]2CC[C@]1(C)[C@H](O)C2 [Borneol-(IS)-endo(-), 1,7,7-Trimethylbicyclo[2.2.1]heptan-2-ol]
  % inhibition (0.0001%): 20%
  % inhibition (0.001%): 80%
  % inhibition (0.01%): 100%

## C=C(C)[C@H]1CC=C(C)C(=O)C1 [Carvone-(S)-(+), p-Mentha-6,8-dien-2-one]
  % inhibition (0.0001%): 30%
  % inhibition (0.001%): 70.5%

## CC(=O)N1CCN(c2ccc(OCC3COC(Cn4ccnc4)(c4ccc(Cl)cc4Cl)O3)cc2)CC1 (stereo not drawn) [Ketoconazole, reference compound]
Reference compound at 0.000001 % (Table 3)
  % inhibition: 8%
Reference compound at 0.000005 % (Table 3)
  % inhibition: 20%
Reference compound at 0.00001 % (Table 3)
  % inhibition: 42%
Reference compound at 0.00005 % (Table 3)
  % inhibition: 100%

## COC(=O)c1ccccc1N [Methyl Anthranilate, Methyl 2-aminobenzoate]
  % inhibition (0.0001%): -7%
  % inhibition (0.001%): 23%

## C=C1CC[C@H]2C[C@@H]1C2(C)C [Pinene-(IS)-(-)-β, 6,6-Dimethyl-2-mehylenebicyclo[3.1.1]heptane]
  % inhibition (0.0001%): -10%
  % inhibition (0.001%): 60%
  % inhibition (0.01%): 88%

## C=CCc1ccc(OC)cc1 [Entragole, 4-Allylanisole]
  % inhibition (0.0001%): 7%
  % inhibition (0.001%): 69.2%
  % inhibition (0.01%): 100%

## COc1cc(CNC(=O)CCCC/C=C/C(C)C)ccc1O [Capsaicin, trans-8-Methyl-N-vanillyl-6 nonenamide]
  % inhibition (0.0001%): 27%
  % inhibition (0.001%): 68%

## C=CCc1ccc(O)c(OC)c1 [Eugenol, 4-Allyl-2-methoxyphenol]
  % inhibition (0.0001%): 9.8%
  % inhibition (0.001%): 66%
  % inhibition (0.01%): 100%

## CC12CCC(CC1)C(C)(C)O2 [Eucatyptol, 1,8-Cincole]
  % inhibition (0.0001%): 38%
  % inhibition (0.001%): 64%
  % inhibition (0.01%): 88%

## C=C1C2CCC(C2)C1(C)C (single isomer, unassigned) [Camphene-(+), 2,2-Dimethyl-3-methylenebicyclo[2.2.1]heptane]
  % inhibition (0.0001%): -49%
  % inhibition (0.001%): 12.4%

## CC1=CCC2C(C1)C2(C)C (stereo not drawn) [Carene-3-(Δ)]
  % inhibition (0.0001%): -26%
  % inhibition (0.001%): 34%

## C/C=C/c1ccc(OC)cc1 [Anethole, trans-, 4-Propenylanisole]
  % inhibition (0.001%): 53%
  % inhibition (0.01%): 100%

## CC(C)=C1CC[C@@H](C)CC1=O [Pulegone-(R)-(+), p-Menth-4-(8)-en-3-one]
  % inhibition (0.0001%): -17%
  % inhibition (0.001%): 31%

## CC(C)=CCCC(C)CCO (stereo not drawn) [Citronellal-(DL)-(β), 3,7-Dimethyl-6-octen-1-ol]
  % inhibition (0.0001%): 41%
  % inhibition (0.001%): 86%
  % inhibition (0.01%): 95%

## Cc1ccc(C(C)C)cc1O [Carvacrol, 5-isoPropyl-2-methylphenol]
  % inhibition (0.0001%): 11%
  % inhibition (0.001%): 93%
  % inhibition (0.01%): 97%

## C=C(C)[C@@H]1CC=C(C)C(=O)C1 [Carvone-(R)-(-), p-Mentha-6,8-dien-2-one]
  % inhibition (0.0001%): 27%
  % inhibition (0.001%): 69%
  % inhibition (0.01%): 100%

## CC1=CCC(O)(C(C)C)CC1 (stereo not drawn) [Terpinen-4-ol, p-Menth-1-en-4-ol]
  % inhibition (0.0001%): 3.81%
  % inhibition (0.001%): 80%
  % inhibition (0.01%): 100%

## C=C(C)[C@@H]1CC=C(C)CC1 [Limonene-(S)-(-), p-Mentha-1,8-diene]
  % inhibition (0.001%): 30%
  % inhibition (0.01%): 82.3%
